This note sets out measurements from patent publication US7129078B2, “DNA encoding androgen receptor fragment” (University of North Carolina at Chapel Hill, priority 1988, dated 2006).

Each structure is given as a SMILES string.

The test has as its target T1, steroid-binding domain of hAR (human androgen receptor) expressed from cDNA fragment (Homo sapiens, UniProt P10275).
T1 sequence (P10275 669-900 limits assumed): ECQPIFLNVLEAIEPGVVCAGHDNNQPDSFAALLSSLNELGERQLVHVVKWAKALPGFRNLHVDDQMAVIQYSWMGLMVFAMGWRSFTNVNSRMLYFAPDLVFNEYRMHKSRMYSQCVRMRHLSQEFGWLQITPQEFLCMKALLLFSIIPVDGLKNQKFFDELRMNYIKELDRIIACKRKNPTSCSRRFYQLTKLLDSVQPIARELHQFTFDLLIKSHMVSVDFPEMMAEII
The note with it: unlabeled steroid at 10- and 100-fold excess over 5 nM [3H]dihydrotestosterone.

Take `C[C@]12CCC(=O)C=C1CC[C@@H]1[C@@H]2[C@@H](O)C[C@@]2(C)[C@H]1CC[C@]2(O)C(=O)CO` [cortisol]: the “steroid specificity (relative affinity)” value was “low affinity”.
